{"source": "paper PMC6978363", "about": "“Chaperone mediated detection of small molecule target binding in cells” (Nature Communications, 2020)", "assay_in_all_cases": "biochemical", "conditions_in_all_cases": "read-out: % Inhibition (at 10mM)", "key": {"[1]": {"target": "HIPK3 (Homo sapiens, UniProt Q9H422)"}, "[2]": {"target": "Fes (Homo sapiens, UniProt P07332)"}, "[3]": {"target": "PASK (Homo sapiens, UniProt Q96RG2)"}, "[4]": {"target": "Fer (Homo sapiens, UniProt P16591)"}, "[5]": {"target": "JAK1 (Homo sapiens, UniProt P23458)", "sequence (P23458 whole entry)": "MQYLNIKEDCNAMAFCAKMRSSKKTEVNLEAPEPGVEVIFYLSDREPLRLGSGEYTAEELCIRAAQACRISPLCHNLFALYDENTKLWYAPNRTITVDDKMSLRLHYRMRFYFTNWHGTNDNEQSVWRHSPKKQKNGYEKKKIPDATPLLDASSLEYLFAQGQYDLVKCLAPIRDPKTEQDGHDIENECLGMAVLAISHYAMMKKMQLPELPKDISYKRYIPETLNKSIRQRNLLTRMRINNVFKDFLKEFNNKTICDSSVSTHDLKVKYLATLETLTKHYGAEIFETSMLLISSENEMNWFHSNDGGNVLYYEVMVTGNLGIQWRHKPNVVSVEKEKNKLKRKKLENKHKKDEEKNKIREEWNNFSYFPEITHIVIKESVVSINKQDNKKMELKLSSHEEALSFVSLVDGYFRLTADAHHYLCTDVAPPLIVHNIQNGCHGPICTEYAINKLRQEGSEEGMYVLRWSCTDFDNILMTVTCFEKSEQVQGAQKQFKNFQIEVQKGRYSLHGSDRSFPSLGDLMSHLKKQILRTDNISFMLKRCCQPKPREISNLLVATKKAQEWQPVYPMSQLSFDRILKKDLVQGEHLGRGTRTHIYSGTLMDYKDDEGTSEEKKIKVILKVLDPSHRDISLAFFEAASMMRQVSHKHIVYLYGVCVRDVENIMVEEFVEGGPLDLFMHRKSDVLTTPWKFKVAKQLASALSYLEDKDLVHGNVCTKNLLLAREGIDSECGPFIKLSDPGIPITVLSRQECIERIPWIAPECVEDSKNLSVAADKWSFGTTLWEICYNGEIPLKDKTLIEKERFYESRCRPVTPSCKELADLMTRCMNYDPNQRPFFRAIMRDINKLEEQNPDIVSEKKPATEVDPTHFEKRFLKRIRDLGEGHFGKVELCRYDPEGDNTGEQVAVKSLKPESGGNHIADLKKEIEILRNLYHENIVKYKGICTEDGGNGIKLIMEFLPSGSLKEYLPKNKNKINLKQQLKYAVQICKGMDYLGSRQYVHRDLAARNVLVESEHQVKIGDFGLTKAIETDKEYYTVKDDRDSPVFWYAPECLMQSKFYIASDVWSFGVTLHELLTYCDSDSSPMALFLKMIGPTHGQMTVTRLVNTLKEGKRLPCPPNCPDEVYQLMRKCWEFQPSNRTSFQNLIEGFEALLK"}, "[6]": {"target": "TXK (Homo sapiens, UniProt P42681)", "sequence (P42681 whole entry)": "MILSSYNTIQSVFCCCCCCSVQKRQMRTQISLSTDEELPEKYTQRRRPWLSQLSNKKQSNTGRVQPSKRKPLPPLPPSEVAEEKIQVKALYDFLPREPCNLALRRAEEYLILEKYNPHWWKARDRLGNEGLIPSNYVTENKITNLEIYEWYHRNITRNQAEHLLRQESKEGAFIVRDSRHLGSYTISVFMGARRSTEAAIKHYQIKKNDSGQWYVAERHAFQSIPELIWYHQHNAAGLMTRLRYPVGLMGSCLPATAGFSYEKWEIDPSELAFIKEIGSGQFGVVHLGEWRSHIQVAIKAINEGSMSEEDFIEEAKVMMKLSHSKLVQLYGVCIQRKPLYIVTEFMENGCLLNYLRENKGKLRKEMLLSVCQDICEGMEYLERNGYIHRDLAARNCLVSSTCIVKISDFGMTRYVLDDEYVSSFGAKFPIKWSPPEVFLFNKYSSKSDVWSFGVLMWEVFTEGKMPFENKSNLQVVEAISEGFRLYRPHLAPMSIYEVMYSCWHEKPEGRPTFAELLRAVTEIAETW"}, "[7]": {"target": "InsR (Homo sapiens, UniProt P06213)"}, "[8]": {"target": "PEAK1 (Homo sapiens, UniProt Q9H792)"}, "[9]": {"target": "T1, PKA (Homo sapiens, UniProt P17612)", "T1 construct": "gene PRKACA"}, "[10]": {"target": "T2, PKC_beta2 (Homo sapiens, UniProt P05771)", "T2 construct": "gene PRKCB; isoform beta 2", "T2 sequence (P05771 whole entry, canonical isoform)": "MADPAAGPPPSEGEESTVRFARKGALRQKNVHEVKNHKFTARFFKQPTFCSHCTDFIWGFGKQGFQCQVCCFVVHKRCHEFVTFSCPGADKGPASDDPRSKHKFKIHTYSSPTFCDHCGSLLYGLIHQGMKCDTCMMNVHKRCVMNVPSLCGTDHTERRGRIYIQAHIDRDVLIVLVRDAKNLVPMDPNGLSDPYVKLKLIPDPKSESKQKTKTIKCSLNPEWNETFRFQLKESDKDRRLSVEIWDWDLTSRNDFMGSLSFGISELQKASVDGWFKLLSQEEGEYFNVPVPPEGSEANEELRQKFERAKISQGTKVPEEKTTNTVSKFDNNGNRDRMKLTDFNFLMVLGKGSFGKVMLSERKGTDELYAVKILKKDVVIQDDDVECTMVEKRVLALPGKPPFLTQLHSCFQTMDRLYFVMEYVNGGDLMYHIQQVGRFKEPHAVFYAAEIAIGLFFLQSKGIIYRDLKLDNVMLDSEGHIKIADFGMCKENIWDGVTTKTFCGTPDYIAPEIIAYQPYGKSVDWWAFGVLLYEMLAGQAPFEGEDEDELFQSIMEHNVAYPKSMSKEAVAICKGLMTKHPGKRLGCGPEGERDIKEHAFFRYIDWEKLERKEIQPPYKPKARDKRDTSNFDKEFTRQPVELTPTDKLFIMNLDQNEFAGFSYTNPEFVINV"}, "[11]": {"target": "SRPK2 (Homo sapiens, UniProt P78362)"}, "[12]": {"target": "MYLK2(skMLCK) (Homo sapiens, UniProt Q9H1R3)"}, "[13]": {"target": "EphA8 (Homo sapiens, UniProt P29322)"}, "[14]": {"target": "T3, ZIPK (Homo sapiens, UniProt O43293)", "T3 construct": "gene DAPK3"}, "[15]": {"target": "JAK2 (Homo sapiens, UniProt O60674)", "sequence (O60674 whole entry)": "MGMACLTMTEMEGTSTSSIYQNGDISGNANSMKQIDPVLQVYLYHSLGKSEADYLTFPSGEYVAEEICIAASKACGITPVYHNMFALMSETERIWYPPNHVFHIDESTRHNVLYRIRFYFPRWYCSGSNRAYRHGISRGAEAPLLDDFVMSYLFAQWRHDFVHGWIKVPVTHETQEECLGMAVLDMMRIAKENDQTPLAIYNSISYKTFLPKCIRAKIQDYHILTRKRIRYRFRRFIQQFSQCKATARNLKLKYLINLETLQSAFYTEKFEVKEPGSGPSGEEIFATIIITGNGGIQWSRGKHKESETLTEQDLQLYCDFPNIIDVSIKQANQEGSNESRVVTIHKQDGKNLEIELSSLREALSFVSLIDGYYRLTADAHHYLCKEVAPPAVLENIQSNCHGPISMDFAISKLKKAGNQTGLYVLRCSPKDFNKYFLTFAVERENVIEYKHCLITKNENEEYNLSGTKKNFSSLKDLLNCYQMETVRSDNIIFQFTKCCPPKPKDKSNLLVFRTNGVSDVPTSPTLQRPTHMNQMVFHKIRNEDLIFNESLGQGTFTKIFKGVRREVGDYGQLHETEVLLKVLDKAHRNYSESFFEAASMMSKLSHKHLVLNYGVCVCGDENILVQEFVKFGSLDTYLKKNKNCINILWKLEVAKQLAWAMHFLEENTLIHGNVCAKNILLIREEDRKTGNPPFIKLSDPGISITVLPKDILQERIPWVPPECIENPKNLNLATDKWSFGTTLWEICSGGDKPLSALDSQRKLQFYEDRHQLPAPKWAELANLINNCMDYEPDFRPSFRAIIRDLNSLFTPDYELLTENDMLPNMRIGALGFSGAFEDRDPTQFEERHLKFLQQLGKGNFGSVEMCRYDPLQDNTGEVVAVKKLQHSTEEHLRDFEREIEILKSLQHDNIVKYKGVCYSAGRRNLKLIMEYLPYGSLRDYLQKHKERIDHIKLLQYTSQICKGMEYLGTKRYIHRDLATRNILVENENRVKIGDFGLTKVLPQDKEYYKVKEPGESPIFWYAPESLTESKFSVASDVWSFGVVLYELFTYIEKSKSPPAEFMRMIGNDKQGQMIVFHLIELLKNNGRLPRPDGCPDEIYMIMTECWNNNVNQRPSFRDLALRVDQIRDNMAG"}, "[16]": {"target": "T4, p38_delta (Homo sapiens, UniProt O15264)", "T4 construct": "gene MAPK13"}, "[17]": {"target": "PLK1 (Homo sapiens, UniProt P53350)"}, "[18]": {"target": "EphB4 (Homo sapiens, UniProt P54760)"}, "[19]": {"target": "PAK4 (Homo sapiens, UniProt O96013)"}, "[20]": {"target": "TSSK2 (Homo sapiens, UniProt Q96PF2)"}, "[21]": {"target": "T5, Mer (Homo sapiens, UniProt Q12866)", "T5 construct": "gene MERTK"}, "[22]": {"target": "T6, PAK7 (Homo sapiens, UniProt Q9P286)", "T6 construct": "gene PAK5"}, "[23]": {"target": "EphA1 (Homo sapiens, UniProt P21709)"}, "[24]": {"target": "T7, LynB (Homo sapiens, UniProt P07948)", "T7 construct": "gene LYN; isoform B"}, "[25]": {"target": "T8, CaMKI_delta (Homo sapiens, UniProt Q8IU85)", "T8 construct": "gene CAMK1D"}, "[26]": {"target": "ErbB4 (Homo sapiens, UniProt Q15303)"}, "[27]": {"target": "T9, CK2_alpha2 (Homo sapiens, UniProt P19784)", "T9 construct": "gene CSNK2A2"}, "[28]": {"target": "T10, PKC_alpha (Homo sapiens, UniProt P17252)", "T10 construct": "gene PRKCA"}, "[29]": {"target": "EphB2 (Homo sapiens, UniProt P29323)", "sequence (P29323 whole entry)": "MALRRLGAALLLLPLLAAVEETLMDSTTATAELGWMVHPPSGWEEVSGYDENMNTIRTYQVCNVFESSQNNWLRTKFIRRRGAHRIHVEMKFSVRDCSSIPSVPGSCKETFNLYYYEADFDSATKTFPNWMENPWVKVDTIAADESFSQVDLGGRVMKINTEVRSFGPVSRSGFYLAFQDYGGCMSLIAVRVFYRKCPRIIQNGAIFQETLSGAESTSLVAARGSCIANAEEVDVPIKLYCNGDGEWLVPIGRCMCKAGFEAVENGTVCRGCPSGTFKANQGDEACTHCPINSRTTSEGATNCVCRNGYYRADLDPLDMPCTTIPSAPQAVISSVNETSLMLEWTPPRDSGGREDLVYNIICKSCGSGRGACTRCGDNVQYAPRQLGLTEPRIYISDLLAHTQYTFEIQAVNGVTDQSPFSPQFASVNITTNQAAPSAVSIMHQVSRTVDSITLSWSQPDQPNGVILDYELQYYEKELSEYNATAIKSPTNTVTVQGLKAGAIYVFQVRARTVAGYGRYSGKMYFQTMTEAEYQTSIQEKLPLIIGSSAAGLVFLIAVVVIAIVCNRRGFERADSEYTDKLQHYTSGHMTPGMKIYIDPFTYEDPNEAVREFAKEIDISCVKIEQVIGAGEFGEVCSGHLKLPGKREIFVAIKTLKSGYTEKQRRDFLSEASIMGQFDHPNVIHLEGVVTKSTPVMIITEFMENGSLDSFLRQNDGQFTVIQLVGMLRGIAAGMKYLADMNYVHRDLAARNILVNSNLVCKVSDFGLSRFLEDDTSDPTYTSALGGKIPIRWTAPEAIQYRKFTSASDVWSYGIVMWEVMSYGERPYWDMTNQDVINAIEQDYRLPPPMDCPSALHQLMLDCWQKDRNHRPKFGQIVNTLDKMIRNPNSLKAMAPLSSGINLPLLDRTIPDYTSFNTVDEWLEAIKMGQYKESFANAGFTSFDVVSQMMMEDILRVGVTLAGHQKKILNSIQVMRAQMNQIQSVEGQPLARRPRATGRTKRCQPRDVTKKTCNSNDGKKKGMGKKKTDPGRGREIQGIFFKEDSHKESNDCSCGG"}, "[30]": {"target": "NEK2 (Homo sapiens, UniProt P51955)"}, "[31]": {"target": "ROCK1 (Homo sapiens, UniProt Q13464)"}, "[32]": {"target": "MuSK (Homo sapiens, UniProt O15146)"}, "[33]": {"target": "T11, MST4 (Homo sapiens, UniProt Q9P289)", "T11 construct": "gene STK26"}, "[34]": {"target": "SIK2 (Homo sapiens, UniProt Q9H0K1)"}, "[35]": {"target": "BTK (Homo sapiens, UniProt Q06187)"}, "[36]": {"target": "T12, CK1_alpha1L (Homo sapiens, UniProt Q8N752)", "T12 construct": "gene CSNK1A1L", "T12 sequence (Q8N752 whole entry)": "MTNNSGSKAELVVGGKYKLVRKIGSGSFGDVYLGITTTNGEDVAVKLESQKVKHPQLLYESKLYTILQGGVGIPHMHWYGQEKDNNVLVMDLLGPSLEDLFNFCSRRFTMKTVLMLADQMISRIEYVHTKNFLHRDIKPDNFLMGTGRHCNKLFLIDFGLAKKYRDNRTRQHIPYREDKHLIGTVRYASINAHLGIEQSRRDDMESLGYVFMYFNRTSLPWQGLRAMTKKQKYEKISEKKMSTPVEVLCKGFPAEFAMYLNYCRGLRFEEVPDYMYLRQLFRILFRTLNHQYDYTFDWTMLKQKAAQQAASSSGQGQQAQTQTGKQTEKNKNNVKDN"}, "[37]": {"target": "EphB3 (Homo sapiens, UniProt P54753)"}, "[38]": {"target": "PAK6 (Homo sapiens, UniProt Q9NQU5)"}}}
{"molecule": "CC(C)(O)CC(=O)NCCn1ccc2ncnc(Nc3ccc(Oc4cccc(C(F)(F)F)c4)c(Cl)c3)c21", "note": "[TAK-285]", "values": [{"measurement": "inhibition", "setting": "[1]", "value": 0, "unit": "%"}, {"measurement": "inhibition", "setting": "[2]", "value": 15.5, "unit": "%"}, {"measurement": "inhibition", "setting": "[3]", "value": 2.5, "unit": "%"}, {"measurement": "inhibition", "setting": "[4]", "value": 12.5, "unit": "%"}, {"measurement": "inhibition", "setting": "[5]", "value": 0, "unit": "%"}, {"measurement": "inhibition", "setting": "[6]", "value": 15, "unit": "%"}, {"measurement": "inhibition", "setting": "[7]", "value": 9.5, "unit": "%"}, {"measurement": "inhibition", "setting": "[8]", "value": 11, "unit": "%"}, {"measurement": "inhibition", "setting": "[9]", "value": 2.5, "unit": "%"}, {"measurement": "inhibition", "setting": "[10]", "value": 9.5, "unit": "%"}, {"measurement": "inhibition", "setting": "[11]", "value": 2.5, "unit": "%"}, {"measurement": "inhibition", "setting": "[12]", "value": -3, "unit": "%"}, {"measurement": "inhibition", "setting": "[13]", "value": 8, "unit": "%"}, {"measurement": "inhibition", "setting": "[14]", "value": 7, "unit": "%"}, {"measurement": "inhibition", "setting": "[15]", "value": 2, "unit": "%"}, {"measurement": "inhibition", "setting": "[16]", "value": 5.5, "unit": "%"}, {"measurement": "inhibition", "setting": "[17]", "value": 8, "unit": "%"}, {"measurement": "inhibition", "setting": "[18]", "value": 8, "unit": "%"}, {"measurement": "inhibition", "setting": "[19]", "value": 5.5, "unit": "%"}, {"measurement": "inhibition", "setting": "[20]", "value": 10.5, "unit": "%"}, {"measurement": "inhibition", "setting": "[21]", "value": 49.5, "unit": "%"}, {"measurement": "inhibition", "setting": "[22]", "value": 5.5, "unit": "%"}, {"measurement": "inhibition", "setting": "[23]", "value": 7, "unit": "%"}, {"measurement": "inhibition", "setting": "[24]", "value": 37, "unit": "%"}, {"measurement": "inhibition", "setting": "[25]", "value": 0, "unit": "%"}, {"measurement": "inhibition", "setting": "[26]", "value": 98.5, "unit": "%"}, {"measurement": "inhibition", "setting": "[27]", "value": 6.5, "unit": "%"}, {"measurement": "inhibition", "setting": "[28]", "value": 13.5, "unit": "%"}, {"measurement": "inhibition", "setting": "[29]", "value": 12, "unit": "%"}, {"measurement": "inhibition", "setting": "[30]", "value": 4, "unit": "%"}, {"measurement": "inhibition", "setting": "[31]", "value": -1.5, "unit": "%"}, {"measurement": "inhibition", "setting": "[32]", "value": 17.5, "unit": "%"}, {"measurement": "inhibition", "setting": "[33]", "value": -2.5, "unit": "%"}, {"measurement": "inhibition", "setting": "[34]", "value": 9.5, "unit": "%"}, {"measurement": "inhibition", "setting": "[35]", "value": 36, "unit": "%"}, {"measurement": "inhibition", "setting": "[36]", "value": 3, "unit": "%"}, {"measurement": "inhibition", "setting": "[37]", "value": 6.5, "unit": "%"}, {"measurement": "inhibition", "setting": "[38]", "value": 5.5, "unit": "%"}]}
